# Key:
# Format in all cases: biochemical
# CamK2a = test: LabChip (Caliper) kinase assay, CamK2a
# Experimental: (§1) The analysis of kinase activity described here was performed using LabChip (Caliper Life Sciences), specifically the Caliper LC3000 and the EZ Reader II instruments.
# (§2) The kinase assay used measures the conversion of a fluorescent peptide (substrate) to a phosphorylated product. The reaction mixture, in a microplate well, is introduced by a capillary in a chip where the non-phosphorylated substrate and the phosphorylated product are separated by […]. The intensity of the fluorescent signal over time is related to the reaction progress. The phosphorylated product migrates quicker than the non-phosphorylated substrate and the signals of the two forms of the peptide appear as differentiated peaks. The Caliper determines the peak height and calculates the ratio of product to the peak sum (P/(P+S)). This value is used to compare wells with compounds and wells with controls and thus determine the % of inhibition for the given product.
# (§3) The followings kinases were used for the enzymatic inhibition studies, between brackets the value of the Michaelis-Menten constant, Km, of the ATP (Adenosine triphosphate) for each kinase, in μM: obtained from Carna Biosciences: MAPKAPK2 (4.6), AurA (3.6), AurB (5), PKCζ (3.8), RSK1 (23.3), PRAK (5), Erk1 (33.4), PKD2 (32.1), CK1d (16.3), CHK1 (33), ABL (61.7), FYN (36), LYNa (17), CHK2 (57.8), MET (79.5), LCK (28.5), SRC (38), GSK3β (7.3), Erk2 (62.1), PKACα (1.7), AKT2 (186.1), INSR (871.8), p38a (396.5), AKT1(48), MSK1 (21.2), PKCβ2 (84.8), ROCK2 (3.3), PIM2 (4.9), AMPK (38.6), KDR (164.8), IRAK4 (196.5), SGK1 (121.8), SYK (33.5); obtained from Invitrogen: CDK2 (57.6), BTK (123), HGK (80); obtained from Upstate: MST2 (36.6), PKGα (16), PAK2 (1.9), IGF1R (320), FGFR1 (171), MARK1 (33), CAMK2δ (22.4), c-TAK1 (66), DYRK1a (18.1), CaMK4 (3.9), FLT3 (350), c-Raf (6.2), P70S6K (95).
# (§4) The compounds were dissolved in 100% DMSO and were diluted at 25 times the final concentration desired for the assay. In the case of the determination of Cl50, serial dilutions were made to reach eight concentrations and give rise to the inhibition curve. 1 μL of each concentration is transferred, in duplicate to a 384-well microplate. 12 μL of enzymatic buffer is added to each well containing purified kinase (several suppliers as indicated above), 100 mM HEPES, pH 7.5, 1 mM DTT (Calbiochem), 0.002% Brij-35 (Sigma) and also in presence of 10 mM MgCl2 as cofactor, except for INSR and IRAK4 wherein 10 mM MnCl2 is used instead of MgCl2. For the kinases CAMK26 and CAMK4, 1 mM CaCl2 and 6.7 μg/mL of calmodulin are also added. For KDR kinase, 0.05% of the CHAPSO detergent is added. For the c-Raf kinase, 10 mM MnCl2 is added. For PKCβ2 0.02 μg/mL of PS/PMA is added. For PKGα se 10 μM of cGMP (cyclic guanosine monophosphate) is added. The compound and the enzyme are left for 15 minutes preincubation and, then, the following are added to each well: 12 μL of peptide buffer/ATP containing 100 mM HEPES, pH 7.5, 1.5 μM peptide marker with fluorescein (specific for the corresponding kinase), ATP (at concentration KM), and 0.002% Brij-35 to start the reaction. Generally, the reactions are incubated for 1-1.5 h at ambient temperature to obtain an adequate conversion (15-40%) of the peptide to the phosphorylated product. The reactions were ended by the addition of 45 μL of buffer containing 0 mM EDTA. The microplates were read by the LabChip 3000 using a 12-channel LabChip. The P/(P+S) values were obtained as described above and the CI50 curves were generated using XIfit.
# For example, the activity of the Dyrk1a kinase is inhibited in 87% by the compound of formula (III) and completely by the compound of formula (XII) when used at a concentration of 10 nM.
# RSK1 = target: T1, RSK1 (Homo sapiens, UniProt Q15418); test: LabChip (Caliper) kinase assay, RSK1; settings: read-out: remaining kinase activity (in %) / percentage of inhibition; for inhibition at 0.01 µM: compound at 10 nM; for inhibition at 0.1 µM: compound at 100 nM
# T1 construct: purchased Carna Biosciences
# Experimental: as §1, §2, §3
# as §4, with “XIfit. […]” for “XIfit.”
# AurB = target: T2, AurB (Homo sapiens, UniProt Q96GD4); test: LabChip (Caliper) kinase assay, AurB; settings: ATP at Km, read-out: CI50 (the source's name)
# T2 construct: purchased Carna Biosciences
# Experimental: as §1
# as §2, with “given product. […]” for “given product.”
# The compounds were dissolved in 100% DMSO and were diluted at 25 times the final concentration desired for the assay. […] The microplates were read by the LabChip 3000 using a 12-channel LabChip. […]
# T1 sequence (Q15418 whole entry): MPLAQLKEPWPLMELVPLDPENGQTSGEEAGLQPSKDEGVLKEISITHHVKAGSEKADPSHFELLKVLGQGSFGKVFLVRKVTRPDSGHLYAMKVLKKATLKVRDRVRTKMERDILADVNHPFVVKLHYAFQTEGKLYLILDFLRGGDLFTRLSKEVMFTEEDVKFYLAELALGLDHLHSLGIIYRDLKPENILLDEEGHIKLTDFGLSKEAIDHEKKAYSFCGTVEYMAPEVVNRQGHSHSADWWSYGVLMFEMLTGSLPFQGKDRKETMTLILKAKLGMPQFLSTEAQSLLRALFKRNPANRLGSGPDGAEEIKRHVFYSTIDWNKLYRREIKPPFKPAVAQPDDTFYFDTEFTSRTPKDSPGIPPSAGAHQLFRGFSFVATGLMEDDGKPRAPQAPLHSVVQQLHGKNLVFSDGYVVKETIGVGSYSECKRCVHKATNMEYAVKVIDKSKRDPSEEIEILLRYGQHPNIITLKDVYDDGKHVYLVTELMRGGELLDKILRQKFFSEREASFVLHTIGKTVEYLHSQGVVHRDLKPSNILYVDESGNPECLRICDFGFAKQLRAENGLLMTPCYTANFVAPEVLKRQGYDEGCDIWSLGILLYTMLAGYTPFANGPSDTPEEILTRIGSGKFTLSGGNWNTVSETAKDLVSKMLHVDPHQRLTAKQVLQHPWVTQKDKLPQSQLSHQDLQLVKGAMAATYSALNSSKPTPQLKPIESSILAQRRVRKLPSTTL
# T2 sequence (Q96GD4 whole entry): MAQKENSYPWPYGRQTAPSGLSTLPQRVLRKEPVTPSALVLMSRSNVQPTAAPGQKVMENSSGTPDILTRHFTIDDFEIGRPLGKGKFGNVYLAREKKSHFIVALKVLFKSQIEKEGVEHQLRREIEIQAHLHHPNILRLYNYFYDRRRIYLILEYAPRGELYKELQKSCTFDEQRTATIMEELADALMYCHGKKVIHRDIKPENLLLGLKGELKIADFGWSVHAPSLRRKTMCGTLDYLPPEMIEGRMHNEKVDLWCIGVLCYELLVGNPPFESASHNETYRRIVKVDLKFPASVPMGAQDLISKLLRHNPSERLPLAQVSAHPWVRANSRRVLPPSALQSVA
# T2 sequence (Q9NQS7 803-918 partner limits assumed): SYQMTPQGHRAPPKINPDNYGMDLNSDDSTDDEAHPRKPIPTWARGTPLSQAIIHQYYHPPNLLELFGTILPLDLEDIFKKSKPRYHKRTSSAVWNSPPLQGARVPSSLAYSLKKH
Structure (SMILES),remaining kinase activity (in %) / percentage of inhibition (CamK2a; compound at 10 nM),remaining kinase activity (in %) / percentage of inhibition (CamK2a; compound at 100 nM),inhibition at 0.01 µM (RSK1),inhibition at 0.1 µM (RSK1),IC50 (AurB)
"C[C@@H]1O[C@@H](n2c3ccccc3c3c4c(c5c6ccccc6[nH]c5c32)CNC4=O)[C@H](O)[C@H](O)[C@H]1O [formula (XII), N^13-1′-β-L-rhamnosyl-k252c]",−6%,2%,-4%,7%,
"C[C@@H]1O[C@@H](n2c3ccccc3c3c4c(c5c6ccccc6[nH]c5c32)C(=O)NC4=O)C[C@H](O)[C@H]1O [formula (IV), N^13-1′-β-L-olivosylarcyriaflavin]",36%,29%,14%,77%,
"C[C@H]1O[C@@H](n2c3ccccc3c3c4c(c5c6ccccc6[nH]c5c32)C(=O)NC4=O)C[C@@H](O)[C@@H]1O [formula (VI), N^13-1′-β-D-olivosylarcyriaflavin]",4%,46%,31%,74%,
"C[C@]12O[C@H](C[C@H](O)[C@H]1O)n1c3ccccc3c3c4c(c5c6ccccc6n2c5c31)CNC4=O [formula (XVII), N^12-5′(S)-N^13-1′-(R)-L-olivosyl-k252c]",,,,,6.8 nM
"C[C@@H]1O[C@@H](n2c3ccccc3c3c4c(c5c6ccccc6[nH]c5c32)C(=O)NC4=O)C[C@@H](O)[C@H]1O [formula (V), N^13-1′-β-L-digitoxosylarcyriaflavin]",15%,58%,38%,77%,
"C[C@@H]1O[C@@H](n2c3ccccc3c3c4c(c5c6ccccc6[nH]c5c32)C(=O)NC4=O)[C@H](O)[C@H](O)[C@H]1O [formula (III), N^13-1′-β-L-rhamnosylarcyriaflavin]",−5%,3%,2%,20%,
"C[C@@H]1O[C@@H](n2c3ccccc3c3c4c(c5c6ccccc6[nH]c5c32)CNC4=O)C[C@@H](O)[C@H]1O [formula (XIV), N^13-1′-β-L-digitoxosyl-k252c]",−7%,26%,-1%,22%,
"C[C@H]1O[C@@H](n2c3ccccc3c3c4c(c5c6ccccc6[nH]c5c32)CNC4=O)C[C@@H](O)[C@@H]1O [formula (XV), N^13-1′-β-D-olivosyl-k252c]",−6%,29%,-1%,31%,
"C[C@@H]1O[C@@H](n2c3ccccc3c3c4c(c5c6ccccc6[nH]c5c32)CNC4=O)C[C@H](O)[C@H]1O [formula (XIII), N^13-1′-β-L-olivosyl-k252c]",−6%,27%,7%,56%,
"C[C@]12O[C@H](C[C@@H](O)[C@H]1O)n1c3ccccc3c3c4c(c5c6ccccc6n2c5c31)C(=O)NC4=O [formula (IX), N^12-5′(S)-N^13-1′-(R)-L-digitoxosylarcyriaflavin]",,,,,4.5 nM
